In PubChem BioAssay AID248 (DTP/NCI, 2004):
Several values for one entry are separate records, joined by “and”; a condition that tells them apart may be missing. Equal values may be shown once. Toxic doses and inconclusive results are not listed. No stated cut-off is given here; in the data, active means T/C of 150% or more; inactive means T/C below 125%.

Tested on: L1210 leukemia ip in BDF1 mice, survival T/C
Assay: NCI In Vivo Anticancer Drug Screen. Data for tumor model L1210 Leukemia (intraperitoneal) in B6D2F1 (BDF1) mice
Conditions: endpoint: mean survival time, higher = longer survival
Method in brief: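 Value reflects the ratio of survival in compound-treated mice to survival in vehicle-treated controls, with both groups carrying the same transplanted tumor.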

[1] = dose: 6.25 mg/kg/injection, schedule: Q01DX009 (ip), vehicle: saline
[2] = dose: 12.5 mg/kg/injection, schedule: Q01DX009 (ip), vehicle: saline
[3] = dose: 25.0 mg/kg/injection, schedule: Q01DX009 (ip), vehicle: saline
[4] = dose: 50.0 mg/kg/injection, schedule: Q01DX009 (ip), vehicle: saline
[5] = dose: 200.0 mg/kg/injection, schedule: Q01DX009 (ip), vehicle: saline with Tween-80
[6] = dose: 100.0 mg/kg/injection, schedule: Q01DX009 (ip), vehicle: saline with Tween-80
[7] = dose: 100.0 mg/kg/injection, schedule: Q04DX003 (ip), vehicle: saline with Tween-80
[8] = dose: 200.0 mg/kg/injection, schedule: Q04DX003 (ip), vehicle: saline with Tween-80
[9] = dose: 100.0 mg/kg/injection, schedule: Q04DX003 (ip), vehicle: Klucel (hydroxypropylcellulose) (HPC)
[10] = dose: 400.0 mg/kg/injection, schedule: Q04DX003 (ip), vehicle: Klucel (hydroxypropylcellulose) (HPC)
[11] = dose: 100.0 mg/kg/injection, schedule: Q01DX009 (ip), vehicle: Klucel (hydroxypropylcellulose) (HPC)
[12] = dose: 200.0 mg/kg/injection, schedule: Q01DX009 (ip), vehicle: Klucel (hydroxypropylcellulose) (HPC)
[13] = dose: 200.0 mg/kg/injection, schedule: Q04DX003 (ip), vehicle: Klucel (hydroxypropylcellulose) (HPC)
[14] = dose: 400.0 mg/kg/injection, schedule: Q01DX009 (ip), vehicle: Klucel (hydroxypropylcellulose) (HPC)
[15] = dose: 100.0 mg/kg/injection, schedule: Q01DX001 (ip), vehicle: carboxymethylcellulose (CMC)
[16] = dose: 200.0 mg/kg/injection, schedule: Q01DX001 (ip), vehicle: carboxymethylcellulose (CMC)
[17] = dose: 400.0 mg/kg/injection, schedule: Q01DX001 (ip), vehicle: carboxymethylcellulose (CMC)
[18] = dose: 100.0 mg/kg/injection, schedule: Q01DX009 (ip), vehicle: saline

Measured: T/C

CCOC(=O)c1ccc(NCc2nnc3nc(N)nc(N)c3n2)cc1
inactive: dose: 50.0 mg/kg/injection, schedule: Q01DX001 (ip), vehicle: saline with Tween-80 103 % of control | dose: 100.0 mg/kg/injection, schedule: Q01DX001 (ip), vehicle: saline with Tween-80 98 % of control | dose: 200.0 mg/kg/injection, schedule: Q01DX001 (ip), vehicle: saline with Tween-80 97 % of control

CN(C)/N=C/c1cccc[n+]1C
inactive: [1] 102 % of control | [2] 106 % of control | [3] 115 % of control

CON(C)CC(Cl)c1ccccc1 (configuration not stated)
inactive: [1] 100 % of control | dose: 6.25 mg/kg/injection, schedule: Q04DX003 (ip), vehicle: saline with Tween-80 98 % of control | [2] 100 % of control | dose: 12.5 mg/kg/injection, schedule: Q04DX003 (ip), vehicle: saline with Tween-80 96 % of control | [3] 92 % of control | dose: 25.0 mg/kg/injection, schedule: Q04DX003 (ip), vehicle: saline with Tween-80 104 % of control | [4] 92 % of control | dose: 50.0 mg/kg/injection, schedule: Q04DX003 (ip), vehicle: saline with Tween-80 96 % of control and 98 % of control

O=C(NCc1ccccc1)c1ccccc1/C(=N/O)c1ccccc1
inactive: [5] 86 % of control

Cc1cc(Cl)ccc1NC(=O)COc1ccc(Cl)cc1Cl
inactive: dose: 50.0 mg/kg/injection, schedule: Q01DX009 (ip), vehicle: saline with Tween-80 87 % of control | [6] 87 % of control | [7] 93 % of control | [5] 96 % of control | [8] 91 % of control

COc1ccc(C(O)CNC(=O)c2ccccc2)cc1 (configuration not stated)
inactive: dose: 25.0 mg/kg/injection, schedule: Q04DX003 (ip), vehicle: Klucel (hydroxypropylcellulose) (HPC) 102 % of control | dose: 50.0 mg/kg/injection, schedule: Q04DX003 (ip), vehicle: Klucel (hydroxypropylcellulose) (HPC) 97 % of control | dose: 100.0 mg/kg/injection, schedule: Q01DX001 (ip), vehicle: saline 96 % of control | [9] 87 % of control | dose: 200.0 mg/kg/injection, schedule: Q01DX001 (ip), vehicle: saline 104 % of control | dose: 400.0 mg/kg/injection, schedule: Q01DX001 (ip), vehicle: saline 98 % of control | [10] 109 % of control

COc1ccc2c(c1)CN(S(=O)(=O)c1ccc(C)cc1)C=CC2=O
inactive: [11] 96 % of control | [9] 90 % of control | [12] 104 % of control | [13] 96 % of control | [14] 96 % of control | [10] 98 % of control

CCOC1=C(Br)C=CN(S(=O)(=O)c2ccc(C)cc2)c2ccc(OC)cc21
inactive: [11] 98 % of control | [9] 95 % of control | [12] 101 % of control | [13] 101 % of control | [14] 100 % of control | [10] 91 % of control

OCSCc1c(Cl)c(Cl)c(Cl)c(Cl)c1Cl
inactive: dose: 100.0 mg/kg/injection, schedule: Q04DX002 (ip), vehicle: Klucel (hydroxypropylcellulose) (HPC) 103 % of control | dose: 200.0 mg/kg/injection, schedule: Q04DX002 (ip), vehicle: Klucel (hydroxypropylcellulose) (HPC) 103 % of control | dose: 400.0 mg/kg/injection, schedule: Q04DX002 (ip), vehicle: Klucel (hydroxypropylcellulose) (HPC) 98 % of control

Clc1nnc(NC2CCCCC2)c(Cl)c1Cl
inactive: [11] 102 % of control | [9] 91 % of control | [12] 102 % of control | [13] 91 % of control | [14] 110 % of control | [10] 92 % of control

CC(=O)c1ccc[n+](Cc2ccc([N+](=O)[O-])cc2)c1
inactive: dose: 100.0 mg/kg/injection, schedule: Q04DX003 (ip), vehicle: saline sonified 98 % of control

OCC1OC(n2cnc3c2NC=NC[C@H]3O)CC1O (some centres not stated)
inactive: dose: 0.13 mg/kg/injection, schedule: Q01DX005 (ip), vehicle: water 100 % of control | dose: 0.13 mg/kg/injection, schedule: Q01DX009 (ip), vehicle: water 104 % of control | dose: 0.25 mg/kg/injection, schedule: Q01DX005 (ip), vehicle: water 105 % of control | dose: 0.25 mg/kg/injection, schedule: Q01DX009 (ip), vehicle: water 101 % of control | dose: 0.25 mg/kg/injection, schedule: Q04DX002 (ip), vehicle: water 98 % of control | dose: 0.25 mg/kg/injection, schedule: Q04DX003 (ip), vehicle: water 98 % of control | dose: 0.5 mg/kg/injection, schedule: Q04DX002 (ip), vehicle: water 95 % of control | dose: 0.5 mg/kg/injection, schedule: Q04DX003 (ip), vehicle: water 106 % of control

CCOC(=O)C1CC2(c3ccccc3)C(c3ccccc3)=C(c3ccccc3)C1(c1ccccc1)C2O (configuration not stated)
inactive: dose: 50.0 mg/kg/injection, schedule: Q01DX001 (ip), vehicle: carboxymethylcellulose (CMC) 94 % of control | [15] 94 % of control | [16] 103 % of control | [17] 94 % of control

CCOc1ccc(NC(=O)Nc2cccc3ccccc23)cc1
inactive: [11] 98 % of control | [9] 86 % of control | [12] 94 % of control | [14] 86 % of control | [10] 92 % of control

Cc1ccc(C(O)C(=O)O)cc1 (configuration not stated)
inactive: dose: 75.0 mg/kg/injection, schedule: Q01DX001 (ip), vehicle: acetone 100 % of control | dose: 150.0 mg/kg/injection, schedule: Q01DX001 (ip), vehicle: acetone 96 % of control

Cc1ccc(C(=O)OCC(C)C)s1
inactive: [15] 98 % of control | [16] 101 % of control | [17] 98 % of control

O=C(Nc1nccs1)c1cccc(F)c1
inactive: [11] 104 % of control | [12] 110 % of control | [14] 112 % of control

CCCCOc1ccc(N)cn1
inactive: [3] 95 % of control | [4] 95 % of control | [18] 113 % of control | dose: 100.0 mg/kg/injection, schedule: Q04DX003 (ip), vehicle: saline 96 % of control

COc1ccc(NC(=O)Nc2nccs2)c(OC)c1
inactive: [18] 104 % of control | dose: 200.0 mg/kg/injection, schedule: Q01DX009 (ip), vehicle: saline 102 % of control | dose: 400.0 mg/kg/injection, schedule: Q01DX009 (ip), vehicle: saline 105 % of control

CCCC/C(=N\NC(N)=S)c1ccc(F)cc1
inactive: dose: 8.0 mg/kg/injection, schedule: Q01DX Z (ip), vehicle: methylcellulose (MC) 95 % of control | dose: 15.0 mg/kg/injection, schedule: Q01DX Z (ip), vehicle: methylcellulose (MC) 89 % of control | dose: 30.0 mg/kg/injection, schedule: Q01DX Z (ip), vehicle: methylcellulose (MC) 98 % of control | dose: 30.0 mg/kg/injection, schedule: Q01DX Z (oral), vehicle: methylcellulose (MC) 86 % of control | dose: 60.0 mg/kg/injection, schedule: Q01DX Z (ip), vehicle: methylcellulose (MC) 87 % of control

CC(=O)OCC(=O)c1cc(C)n(C)c(=O)c1CN1C(=O)c2ccccc2C1=O
inactive: [6] 107 % of control | [7] 97 % of control | [5] 102 % of control | [8] 96 % of control | dose: 400.0 mg/kg/injection, schedule: Q01DX009 (ip), vehicle: saline with Tween-80 108 % of control | dose: 400.0 mg/kg/injection, schedule: Q04DX003 (ip), vehicle: saline with Tween-80 96 % of control
